This note sets out measurements from patent publication US12319672B2, “Alpha-D-galactopyranoside derivatives” (Idorsia Pharmaceuticals Ltd, priority 2019, dated 2025).

In test [1] the target is human Gal-1 (hGal-1). The experiment in a line: Competitive binding assay: binding of biotinylated hGal-1 to microplate-adsorbed asialofetuin (ASF). To be noted: Activities on hGal-1; mean values of several measurements. In outline: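 Compounds diluted in DMSO competed with biotinylated hGal-3 or hGal-1 (300-1000 ng/mL) for binding to plate-adsorbed asialofetuin for 3 h at 4° C. Bound galectin was detected with streptavidin-peroxidase (80 ng/mL, 1 h, 4° C) and ABTS substrate; IC50 reported as mean of several measurements.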

Test [2] addresses human Gal-3 (hGal-3) (Homo sapiens (Human), UniProt P17931). The experiment in a line: Competitive binding assay: binding of biotinylated hGal-3 to microplate-adsorbed asialofetuin (ASF). To be noted: Activity on hGal-3; mean values of several measurements. In outline: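 Biotin-hGal-3/hGal-1 300-1000 ng/mL + cpd (DMSO dilutions) on ASF-coated plate, 3 h 4° C; wash; SA-HRP 80 ng/mL 1 h 4° C; wash; ABTS. IC50 = mean of several runs. hGal-1 preferably Cys→Ser (all six) mutant.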

The structures appear in SMILES notation. A value given as a limit tells only on which side of the number the result lay.

Chain of human Gal-3 (hGal-3) (P17931 whole entry): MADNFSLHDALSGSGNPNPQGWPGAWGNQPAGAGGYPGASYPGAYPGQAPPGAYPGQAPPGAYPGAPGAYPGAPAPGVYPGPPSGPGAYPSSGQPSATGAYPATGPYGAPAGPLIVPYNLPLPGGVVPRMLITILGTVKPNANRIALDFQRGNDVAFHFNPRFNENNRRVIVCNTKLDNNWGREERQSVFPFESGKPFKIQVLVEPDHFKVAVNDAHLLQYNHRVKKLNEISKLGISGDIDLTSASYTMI
Chain of human Gal-1 (hGal-1) (P09382 2-135 limits assumed): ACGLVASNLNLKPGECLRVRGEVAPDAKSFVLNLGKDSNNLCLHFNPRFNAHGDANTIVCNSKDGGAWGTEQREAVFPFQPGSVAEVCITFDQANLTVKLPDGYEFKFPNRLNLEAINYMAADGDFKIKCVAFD

Regarding `CO[C@@H]1[C@@H](n2cc(-c3ccc(C)c(F)c3F)nn2)[C@@H](O)[C@@H](CO)O[C@@H]1Cc1cn(C(C)(C)C)nn1` [Example 4.52, (2R,3R,4S,5R,6R)-6-((1-(tert-butyl)-1H-1,2,3-triazol-4-yl)methyl)-4-(4-(2,3-difluoro-4-methylphenyl)-1H-1,2,3-triazol-1-yl)-2-(hydroxymethyl)-5-methoxytetrahydro-2H-pyran-3-ol], the IC50 was 0.73 µM in test [1] and 0.053 µM in test [2].

Take `Cc1c(F)cccc1-c1cn([C@H]2[C@@H](O)[C@@H](CO)O[C@H](CC3CC(C4CCN(C(=O)OC(C)(C)C)CC4)=NO3)[C@@H]2O)nn1` (stereo partly shown) [Ex 1.112]: the IC50 in test [1] stood at 0.77 µM; in test [2], 1 µM.

For `CO[C@@H]1[C@@H](n2cc(-c3cc(F)c(F)c(F)c3)nn2)[C@@H](O)[C@@H](CO)O[C@@H]1CC1CN(C2CCN(C(=O)C(C)C)CC2)C(=O)O1` (mixture of isomers) [Example 5.10, (RS)-5-(((2R,3R,4S,5R,6R)-5-hydroxy-6-(hydroxymethyl)-3-methoxy-4-(4-(3,4,5-trifluorophenyl)-1H-1,2,3-triazol-1-yl)tetrahydro-2H-pyran-2-yl)methyl)-3-(1-isobutyrylpiperidin-4-yl)oxazolidin-2-one], the results for the IC50 in test [1] and in test [2] were 0.28 µM and 0.19 µM, respectively.

`CCC(O)(CC)c1cc(C[C@H]2O[C@H](CO)[C@H](O)[C@H](n3cc(-c4ccc(C)c(F)c4F)nn3)[C@H]2OC)no1` [Ex 1.323]: the IC50 in test [1] is 5.08 µM; in test [2] it was 0.62 µM.

For `OC[C@H]1O[C@H](CC2CC(c3cc(Cl)ccc3Cl)=NO2)[C@H](O)[C@@H](n2cc(-c3cc(F)c(F)c(F)c3)nn2)[C@H]1O` (stereo partly shown) [Ex 1.295], the IC50 was 17.1 µM in test [1] and 1.8 µM in test [2].

Take `CO[C@@H]1[C@@H](n2cc(-c3ccc(Br)c(F)c3F)nn2)[C@@H](O)[C@@H](CO)O[C@@H]1CC1CC(C2CCNCC2)=NO1` (stereo partly shown) [Ex 1.142]: the concentration for half-maximal inhibition (IC50) in test [1] is 1.32 µM; in test [2] it was 0.071 µM.

`CC(C)(C)c1cc(C[C@H]2O[C@H](CO)[C@H](O)[C@H](n3cc(-c4cc(F)c(F)c(F)c4)nn3)[C@H]2O)on1` [Example 2.48, (2R,3R,4R,5R,6R)-2-((3-(tert-butyl)isoxazol-5-yl)methyl)-6-(hydroxymethyl)-4-(4-(3,4,5-trifluorophenyl)-1H-1,2,3-triazol-1-yl)tetrahydro-2H-pyran-3,5-diol]: the half-maximal inhibitory concentration (IC50) in test [1] turned out to be 1.04 µM; in test [2], 0.098 µM.

`CC(C)C(=O)O[C@@H]1[C@@H](n2cc(-c3cc(F)c(F)c(F)c3)nn2)[C@@H](O)[C@@H](CO)O[C@@H]1Cc1cc(C2CCN(C(=O)OC(C)(C)C)CC2)on1` [Example 2.22, tert-butyl 4-(3-(((2R,3R,4S,5R,6R)-5-hydroxy-6-(hydroxymethyl)-3-(isobutyryloxy)-4-(4-(3,4,5-trifluorophenyl)-1H-1,2,3-triazol-1-yl)tetrahydro-2H-pyran-2-yl)methyl)isoxazol-5-yl)piperidine-1-carboxylate]: the IC50 in test [1] amounted to 27.3 µM; in test [2] it was 0.2 µM.

As to `CO[C@@H]1[C@@H](n2cc(-c3cc(F)c(F)c(F)c3)nn2)[C@@H](O)[C@@H](CO)O[C@@H]1Cc1cc(C2(O)CCC2)no1` [Example 2.56, (2R,3R,4S,5R,6R)-6-((3-(1-hydroxycyclobutyl)isoxazol-5-yl)methyl)-2-(hydroxymethyl)-5-methoxy-4-(4-(3,4,5-trifluorophenyl)-1H-1,2,3-triazol-1-yl)tetrahydro-2H-pyran-3-ol], the IC50 in test [1] stood at 1.77 µM; in test [2], 0.49 µM.

As for `CO[C@@H]1[C@@H](n2cc(-c3ccc(Cl)c(F)c3F)nn2)[C@@H](O)[C@@H](CO)O[C@@H]1Cn1cc(C(C)(C)C)nn1` [Example 4.55, (2R,3R,4S,5R,6R)-6-((4-(tert-butyl)-1H-1,2,3-triazol-1-yl)methyl)-4-(4-(4-chloro-2,3-difluorophenyl)-1H-1,2,3-triazol-1-yl)-2-(hydroxymethyl)-5-methoxytetrahydro-2H-pyran-3-ol], the IC50 in test [1] was found to be 0.95 µM; in test [2], 0.031 µM.

Consider `CO[C@@H]1[C@@H](n2cc(-c3ccc(C)c(F)c3F)nn2)[C@@H](O)[C@@H](CO)O[C@@H]1Cc1cc(C2(C)COC2)on1` [Ex 1.320], for which the IC50 in test [1] is 2.62 µM; in test [2], 0.075 µM.

For `COc1ccc(-c2cc(C[C@H]3O[C@H](CO)[C@H](O)[C@H](n4cc(-c5cc(F)c(F)c(F)c5)nn4)[C@H]3O)no2)cc1` [Ex 1.296], the IC50 turned out to be 52.2 µM in test [1] and 1.41 µM in test [2].

In the case of `CO[C@@H]1[C@@H](n2cc(-c3cc(F)c(F)c(F)c3)nn2)[C@@H](O)[C@@H](CO)O[C@@H]1Cc1cc(C2CCN(C(C)=O)C2)on1` (mixture of isomers) [Example 2.09], the IC50 in test [1] was determined as 8.38 µM; in test [2], 0.66 µM.

On to `CO[C@@H]1[C@@H](n2cc(-c3ccc(C)c(F)c3F)nn2)[C@@H](O)[C@@H](CO)O[C@@H]1Cc1cc(C(C)(O)c2ccccc2)on1` (stereo partly shown) [Ex 1.339], for which the IC50 in test [1] worked out at 10 µM; in test [2], 0.28 µM.

Consider `CO[C@@H]1[C@@H](n2cc(-c3cc(F)c(F)c(F)c3)nn2)[C@@H](O)[C@@H](CO)O[C@@H]1CN1CC(C2CCN(C(=O)OC(C)(C)C)CC2)OC1=O` (mixture of isomers) [Example 5.24, tert-butyl 4-((RS)-3-(((2R,3R,4S,5R,6R)-5-hydroxy-6-(hydroxymethyl)-3-methoxy-4-(4-(3,4,5-trifluorophenyl)-1H-1,2,3-triazol-1-yl)tetrahydro-2H-pyran-2-yl)methyl)-2-oxooxazolidin-5-yl)piperidine-1-carboxylate], for which the half-inhibitory concentration (IC50) is 1.81 µM in test [1] and 0.29 µM in test [2].

On to `CO[C@@H]1[C@@H](n2cc(-c3cc(F)c(F)c(F)c3)nn2)[C@@H](O)[C@@H](CO)O[C@@H]1CC1=NOC(C2CCNCC2)C1` (mixture of isomers) [Example 3.36, (2R,3R,4S,5R,6R)-2-(hydroxymethyl)-5-methoxy-6-(((RS)-5-(piperidin-4-yl)-4,5-dihydroisoxazol-3-yl)methyl)-4-(4-(3,4,5-trifluorophenyl)-1H-1,2,3-triazol-1-yl)tetrahydro-2H-pyran-3-ol], for which the figures for the IC50 in test [1] and in test [2] were 8.14 µM and 1.16 µM, respectively.

As to `Cn1c(=O)[nH]c2cc(C3=NOC(C[C@H]4O[C@H](CO)[C@H](O)[C@H](n5cc(-c6cc(F)c(F)c(F)c6)nn5)[C@H]4O)C3)ccc21` (stereo partly shown) [Ex 1.28], the values for the IC50 in test [1] and in test [2] were 18.9 µM and 0.47 µM, respectively.

Take `CC(C)(C)OC(=O)N1CCC(c2cc(C[C@H]3O[C@H](CO)[C@H](O)[C@H](n4cc(-c5cc(F)c(F)c(F)c5)nn4)[C@H]3O)no2)CC1` [Ex 1.40]: the IC50 worked out at 0.74 µM in test [1] and 0.043 µM in test [2].

With `CO[C@@H]1[C@@H](n2cc(-c3cc(F)c(F)c(F)c3)nn2)[C@@H](O)[C@@H](CO)O[C@@H]1Cc1cc(C2CCCCC2)no1` [Ex 1.120], the IC50 in test [1] came to 10.6 µM; in test [2] it was 0.29 µM.

Turning to `CO[C@@H]1[C@@H](n2cc(-c3ccc(C)c(F)c3F)nn2)[C@@H](O)[C@@H](CO)O[C@@H]1Cc1cc(C(C)(CO)CCl)no1` (stereo partly shown) [Ex 1.263], the IC50 is 1.03 µM in test [1] and 0.058 µM in test [2].

With `CO[C@@H]1[C@@H](n2cc(-c3ccc(Cl)c(F)c3F)nn2)[C@@H](O)[C@@H](CO)O[C@@H]1Cc1cc(C2(O)CCC2)on1` [Ex 1.246], the IC50 in test [1] is 1.72 µM; in test [2], 0.073 µM.

On to `OC[C@H]1O[C@H](Cc2cc(C3CCC4(CC3)OCCO4)on2)[C@H](O)[C@@H](n2cc(-c3cc(F)c(F)c(F)c3)nn2)[C@H]1O` [Ex 1.77], for which the values for the IC50 in test [1] and in test [2] were 6.82 µM and 0.71 µM, respectively.

Consider `CCNC(=O)N1CCC(c2cc(C[C@H]3O[C@H](CO)[C@H](O)[C@H](n4cc(-c5cc(F)c(F)c(F)c5)nn4)[C@H]3O)no2)CC1` [Example 3.27, 4-(3-(((2R,3R,4R,5R,6R)-3,5-dihydroxy-6-(hydroxymethyl)-4-(4-(3,4,5-trifluorophenyl)-1H-1,2,3-triazol-1-yl)tetrahydro-2H-pyran-2-yl)methyl)isoxazol-5-yl)-N-ethylpiperidine-1-carboxamide], for which the IC50 in test [1] came to 0.87 µM; in test [2], 0.032 µM.

For `CO[C@@H]1[C@@H](n2cc(-c3ccc(F)c(F)c3F)nn2)[C@@H](O)[C@@H](CO)O[C@@H]1Cc1cc(C2(O)CCC2)on1` [Ex 1.236], the figures for the IC50 in test [1] and in test [2] were 0.96 µM and 0.057 µM, respectively.

`CO[C@@H]1[C@@H](n2cc(-c3ccc(Cl)c(F)c3F)nn2)[C@@H](O)[C@@H](CO)O[C@@H]1Cc1cc(-c2ccc(F)c(F)c2F)on1` [Ex 1.231]: the IC50 is above 100 µM in test [1] and 0.91 µM in test [2].

For `CO[C@@H]1[C@@H](n2cc(-c3ccc(Br)c(F)c3)nn2)[C@@H](O)[C@@H](CO)O[C@@H]1Cc1cn(C2CCN(C(=O)OCc3ccccc3)CC2)nn1` [Example 4.36, benzyl 4-(4-(((2R,3R,4S,5R,6R)-4-(4-(4-bromo-3-fluorophenyl)-1H-1,2,3-triazol-1-yl)-5-hydroxy-6-(hydroxymethyl)-3-methoxytetrahydro-2H-pyran-2-yl)methyl)-1H-1,2,3-triazol-1-yl)piperidine-1-carboxylate], the values for the IC50 in test [1] and in test [2] were 0.57 µM and 0.019 µM, respectively.

As for `CO[C@@H]1[C@@H](n2cc(-c3ccc(Cl)c(F)c3)nn2)[C@@H](O)[C@@H](CO)O[C@@H]1Cc1cc(C2CCCCC2)on1` [Ex 1.174], the values for the concentration for half-maximal inhibition (IC50) in test [1] and in test [2] were 18.8 µM and 0.9 µM, respectively.

On to `CO[C@@H]1[C@@H](n2cc(-c3cc(F)c(Cl)c(F)c3)nn2)[C@@H](O)[C@@H](CO)O[C@@H]1Cc1cc(C2CCCCC2)on1` [Ex 1.176], for which the figures for the IC50 in test [1] and in test [2] were above 100 µM and 0.87 µM, respectively.

`CO[C@@H]1[C@@H](n2cc(-c3cc(F)c(F)c(F)c3)nn2)[C@@H](O)[C@@H](CO)O[C@@H]1Cc1cc(C2CCN(C)C(=O)C2)no1` (stereo partly shown) [Ex 1.90]: the IC50 worked out at 1.78 µM in test [1] and 0.26 µM in test [2].

Usually IC50 stands for the midpoint of a concentration-inhibition curve. Read a high IC50 as lower potency.
